This is an account of results in paper PMC6412051 (Scientific Reports, 2019).

The conditions of series [1]: oral administration; cited from earlier work.
A short description of series [2]: Formation/stability constant by continuous variation (Job's) method. Type of series: physicochemical. Particulars: equimolar solutions in methanol, room temperature. An excerpt: In Fig. 1, the extrapolated value at the point of cross section on the Job’s curve corresponds to the total absorbance of the complex, if the complex formation had been completed. Since the complex is dissociative in nature, the actual absorbance is somewhat lower than the absorbance […].
The colour of the solution changed from brown to orange. Wavelength of maximum absorbance was noted against a blank, which appeared at 296 nm. All the measurements were made at 296 nm.

Consider `CCN1CCCC1CNC(=O)c1cc(S(N)(=O)=O)ccc1OC` (centres unmarked) [SPR, Sulpiride], for which the bioavailability entry in series [1] is “approximately 30%”.

With [Ru(p-cymene)Cl(SPR)], in series [2], the “formation constant of the complex (log K)” value turned out to be 5.45.
